Values of other authors as cited in patent publication US6558704B1, “Process for preparing pellets containing up to 90 wt.% of a pharmaceutical active ingredient” (Gruenenthal GmbH, priority 1999, dated 2003).
Counter-ions that a name gives are not always drawn.

SMILES	solubility in water [mg/mL]
CN(C)CCCN1c2ccccc2Sc2ccc(Cl)cc21 [chlorpromazine hydrochloride]	2500
Cc1c(N(C)CS(=O)(=O)[O-])c(=O)n(-c2ccccc2)n1C.[Na+] [metamizol-Na]	> 1000
